Reference: patent publication US20240010606A1, “FUMARATE DERIVATIVES AND THEIR MEDICAL USE” (Sitryx Therapeutics Limited, priority 2020, published 2024)

What was measured:
[1] = Hepatocyte stability assay, human; assay type: in vitro ADME; conditions: cryopreserved hepatocytes, 10 μM compound
Procedure, shortened: (§1)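 Cryopreserved hepatocytes (viability >70%) at 0.5×10^6 cells/mL in Leibovitz buffer, preincubated 10 min at 37 °C, then compound at 10 μM (0.1% DMSO) in duplicate; buffer-only incubations as control. Samples at 0-60 min quenched in acetonitrile, analysed by LC-MS/MS; half-life and CLint (μL min^−1 10^−6 cells) from ln % remaining versus time.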

hepatocytes [2] = test: Hepatocyte stability assay, human; assay type: in vitro ADME; conditions: 10 μM compound
Procedure, shortened: as §1

[3] = Hepatocyte stability assay, mouse; assay type: in vitro ADME; conditions: mouse, cryopreserved hepatocytes, 10 μM compound
Procedure, shortened: as §1

hepatocytes [4] = test: Hepatocyte stability assay, mouse; assay type: in vitro ADME; conditions: 10 μM compound
Procedure, shortened: as §1

IL-1β = test: THP-1 AlphaLISA IL-1β cytokine assay; assay type: cell-based; conditions: Homo sapiens, differentiated THP-1 cells
Procedure, shortened: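 THP-1 cells differentiated 72 h with PMA, pre-incubated 30 min with compounds, stimulated 24 h with LPS, then 1 h with nigericin, all at 37 °C. Supernatant cytokine measured by AlphaLISA; % inhibition normalised to ±LPS controls and IC50 taken from concentration-response curves.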

IL-6 = test: THP-1 AlphaLISA IL-6 cytokine assay; assay type: cell-based; conditions: Homo sapiens
Protocol: Biological Example 1—THP-1 AlphaLISA IL-1β and IL-6 Cytokine Assay Measuring Inhibitory Effects on IL-1, and IL-6 Cytokine Output from THP-1s The cytokine inhibition profiles of compounds of formula (I) were determined in a differentiated THP-1 cell assay. All assays were performed in RPMI-1640 growth medium (Gibco), supplemented with 10% fetal bovine serum (FBS; Gibco), 1% penicillin-streptomycin and 1% sodium pyruvate unless specified otherwise. The IL-1β and IL-6 cytokine inhibition assays were each run in a background of differentiated THP-1 cells as described below. All reagents described were from Sigma-Aldrich unless specified otherwise. Compounds were prepared as 10 mM DMSO stocks. THP-1 cells were expanded as a suspension up to 80% confluence in appropriate growth medium. Cells were harvested, suspended, and treated with an appropriate concentration of phorbol 12-myristate 13-acetate (PMA) over a 72 hr period (37° C./5% CO2). Following 72 hrs of THP-1 cell incubation, cellular medium was removed and replaced with fresh growth media containing 1% of FBS. Working concentrations of compounds were prepared separately in 10% FBS treated growth medium and pre-incubated with the cells for 30 minutes (37° C./5% CO2). Following the 30 minute compound pre-incubation, THP-1s were treated with an appropriate concentration of LPS and the THP-1s were subsequently incubated for a 24 hr period (37° C./5% CO2). An appropriate final concentration of Nigericin was then dispensed into the THP-1 plates and incubated for 1 hour (37° C./5% CO2) before THP-1 supernatants were harvested and collected in separate polypropylene 96-well holding plates. Reagents from each of the IL-1β and IL-6 commercial kits (Perkin Elmer) were prepared and run according to the manufacturer's instructions. Subsequently, fluorescence signal detection in a microplate reader was measured (EnVision® Multilabel Reader, Perkin Elmer). Percentage inhibition was calculated per cytokine by normalizing the sample data to the high and low controls used within each plate (+/−LPS respectively). Percentage inhibition was then plotted against compound concentration and the 50% inhibitory concentration (IC50) was determined from the resultant concentration-response curve.

NRF2 = NRF2 activation assay (DiscoverX PathHunter NRF2 translocation kit, U2OS cells); assay type: cell-based
Procedure, shortened: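 PathHunter U2OS cells, grown 24 h at 37 °C/5% CO2, treated 6 h with compound; NRF2 nuclear translocation read as enzyme-fragment-complementation chemiluminescence. Activation normalised to dimethyl fumarate high and untreated low controls; EC50 from concentration-response curve.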

[5] = THP-1, differentiated THP-1 cells, LPS then Nigericin, Table 1
[6] = +GSH, normalised to dimethyl fumarate high control, Table 3
[7] = −GSH, normalised to dimethyl fumarate high control, Table 3
[8] = Table 2, compounds of formula (II)
[9] = THP-1, differentiated THP-1 cells, Table 2, compounds of formula (II)
[10] = +GSH, Table 4, compounds of formula (II)
[11] = −GSH, Table 4, compounds of formula (II)

SMILES | half-life at 10 μM ([1]; Table 6, read-out: T½) [min] | CIint (hepatocytes [2]; Table 6) | half-life at 10 μM ([3]; Table 6, read-out: T½) [min] | CIint (hepatocytes [4]; Table 6) | IC50 (IL-1β; [8]) [µM] | IC50 (IL-6; [9]) [µM] | EC50 (NRF2; [10]) [µM] | NRF2 activation Emax (NRF2; [10]) | EC50 (NRF2; [11]) [µM] | NRF2 activation Emax (NRF2; [11]) | also measured
O=C(O)COC(=O)/C=C/C(=O)OC1CCCCCCC1 [Example 1, (E)-2-((4-(cyclooctyloxy)-4-oxobut-2-enoyl)oxy)acetic acid] | – | – | – | – | – | – | – | – | – | – | half-life at 10 μM ([1]; Table 5, read-out: T½): 30 to 100 min; CIint (hepatocytes [2]; Table 5): ++++ (++++ means <50); half-life at 10 μM ([3]; Table 5, read-out: T½): < 5 min; CIint (hepatocytes [4]; Table 5): + (+ means >277); IC50 (IL-1β; LPS then Nigericin, Table 1): 2.5 to 6.1 µM; IC50 (IL-6; [5]): < 2.5 µM; EC50 (NRF2; +GSH, Table 3): 6 to 20 µM; NRF2 activation Emax (NRF2; [6]): ++ (++ means 100-149); EC50 (NRF2; −GSH, Table 3): < 2 µM; NRF2 activation Emax (NRF2; [7]): ++++ (++++ means 200-250%)
O=C(O)CCOC(=O)/C=C/C(=O)OC1CCCCC1 [Example 4, (E)-3-((4-(cyclohexyloxy)-4-oxobut-2-enoyl)oxy)propanoic acid] | – | – | – | – | – | – | – | – | – | – | half-life at 10 μM ([1]; Table 5, read-out: T½): 5 to 29 min; CIint (hepatocytes [2]; Table 5): +++ (+++ means 50-149); half-life at 10 μM ([3]; Table 5, read-out: T½): < 5 min; CIint (hepatocytes [4]; Table 5): + (+ means >277); IC50 (IL-1β; LPS then Nigericin, Table 1): 2.5 to 6.1 µM; IC50 (IL-6; [5]): < 2.5 µM; IC50 (IL-6; THP-1, from repeated experiments, Table 1): 2.5 to 6.1 µM; EC50 (NRF2; +GSH, Table 3): 6 to 20 µM; NRF2 activation Emax (NRF2; [6]): + (+ means >17.1-99); EC50 (NRF2; −GSH, Table 3): 2.1 to 6 µM; NRF2 activation Emax (NRF2; [7]): +++ (+++ means 150-199%)
O=C(O)/C=C/C(=O)OC1(c2ccc(C(F)(F)F)cc2)CC1 [Intermediate 38, (E)-4-oxo-4-(1-(4-(trifluoromethyl)phenyl)cyclopropoxy)but-2-enoic acid] | 30 to 100 | +++ (+++ means >15-30) | 5 to 29 | ++ (++ means >30-110) | < 6 | 6 to 30 | < 23 | + (+ means >50-<87%) | < 23 | ++++ (++++ means >150%) | –
O=C(O)/C=C/C(=O)OC1(c2ccc(OC(F)(F)F)cc2)CCC1 [Intermediate 30, (E)-4-oxo-4-(1-(4-(trifluoromethoxy)phenyl)cyclobutoxy)but-2-enoic acid] | > 100 | ++++ (++++ means 5-15) | 30 to 100 | +++ (+++ means >15-30) | < 6 | 6 to 30 | 23 to 48.4 | ++ (++ means >87-114%) | < 23 | +++ (+++ means >114-150%) | –
O=C(O)/C=C/C(=O)OC1(c2cc(Cl)c(F)c(Cl)c2)CCC1 [Intermediate 25, (E)-4-(1-(3,5-dichloro-4-fluorophenyl)cyclobutoxy)-4-oxobut-2-enoic acid] | > 100 | +++ (+++ means >15-30) | 30 to 100 | ++ (++ means >30-110) | 6 to 30 | < 6 | < 23 | ++ (++ means >87-114%) | < 23 | ++++ (++++ means >150%) | –
O=C(O)/C=C/C(=O)OC1(c2ccc(C(F)(F)F)c(F)c2)CCC1 [Intermediate 16, (E)-4-(1-(3-fluoro-4-(trifluoromethyl)phenyl)cyclobutoxy)-4-oxobut-2-enoic acid] | > 100 | +++ (+++ means >15-30) | 30 to 100 | +++ (+++ means >15-30) | < 6 | < 6 | < 23 | +++ (+++ means >114-150%) | < 23 | ++++ (++++ means >150%) | –
C[C@@H](OC(=O)/C=C/C(=O)O)c1ccc(C(F)(F)F)cc1 [Intermediate 20, (R,E)-4-oxo-4-(1-(4-(trifluoromethyl)phenyl)ethoxy)but-2-enoic acid] | > 100 | ++++ (++++ means 5-15) | 30 to 100 | +++ (+++ means >15-30) | 6 to 30 | 6 to 30 | 23 to 48.4 | + (+ means >50-<87%) | < 23 | +++ (+++ means >114-150%) | –
O=C(O)/C=C/C(=O)OC1(c2ccc(C(F)(F)F)c(Cl)c2)CCC1 [Intermediate 26, (E)-4-(1-(3-chloro-4-(trifluoromethyl)phenyl)cyclobutoxy)-4-oxobut-2-enoic acid] | 30 to 100 | +++ (+++ means >15-30) | 30 to 100 | ++ (++ means >30-110) | < 6 | < 6 | < 23 | ++ (++ means >87-114%) | < 23 | +++ (+++ means >114-150%) | –
C[C@H](OC(=O)/C=C/C(=O)O)c1ccc(C(F)(F)F)cc1 [Intermediate 19, (S,E)-4-oxo-4-(1-(4-(trifluoromethyl)phenyl)ethoxy)but-2-enoic acid] | > 100 | ++++ (++++ means 5-15) | 5 to 29 | ++ (++ means >30-110) | 6 to 30 | 6 to 30 | < 23 | +++ (+++ means >114-150%) | < 23 | ++++ (++++ means >150%) | –
O=C(O)/C=C/C(=O)OC1(c2ccc(Br)cc2)CCC1 [Intermediate 12, (E)-4-(1-(4-bromophenyl)cyclobutoxy)-4-oxobut-2-enoic acid] | 30 to 100 | +++ (+++ means >15-30) | 30 to 100 | +++ (+++ means >15-30) | 6 to 30 | 6 to 30 | < 23 | ++ (++ means >87-114%) | < 23 | ++ (++ means >87-114%) | –
O=C(O)/C=C/C(=O)OC1(c2cc(Cl)cc(Cl)c2)CCC1 [Intermediate 14, (E)-4-(1-(3,5-dichlorophenyl)cyclobutoxy)-4-oxobut-2-enoic acid] | > 100 | ++++ (++++ means 5-15) | 5 to 29 | ++ (++ means >30-110) | 6 to 30 | < 6 | < 23 | ++++ (++++ means >150%) | < 23 | ++++ (++++ means >150%) | –
CC(C)(OC(=O)/C=C/C(=O)O)c1ccc(C(F)(F)F)cc1 [Intermediate 21, (E)-4-oxo-4-((2-(4-(trifluoromethyl)phenyl)propan-2-yl)oxy)but-2-enoic acid] | > 100 | ++++ (++++ means 5-15) | > 100 | ++++ (++++ means 5-15) | 6 to 30 | > 100 | < 23 | ++ (++ means >87-114%) | < 23 | +++ (+++ means >114-150%) | EC50 (NRF2; +GSH, from repeated experiments, Table 4): 23 to 48.4 µM
O=C(O)/C=C/C(=O)OC1(c2ccc(C(F)(F)F)cc2)CCC1 [Intermediate 3, (E)-4-oxo-4-(1-(4-(trifluoromethyl)phenyl)cyclobutoxy)but-2-enoic acid] | > 100 | ++++ (++++ means 5-15) | 30 to 100 | +++ (+++ means >15-30) | < 6 | – | < 23 | +++ (+++ means >114-150%) | < 23 | +++ (+++ means >114-150%) | IC50 (IL-6; differentiated THP-1 cells, Table 2, compounds of formula (II)): < 6 µM
